US6897209B2, “Labelled factor XIIIa substrates” (GE Healthcare Limited, priority 1997, dated 2005)

Experiments:
human plasma clots [1] = molecular target: T1, human plasma clots (Homo sapiens, UniProt P00488); test: Incorporation into human plasma clots (in vitro plasma clot assay); type: biochemical; conditions: for % specific uptake*: % retained with thrombin − % retained no thrombin; for % retained in plasma clot assay (with thrombin): human plasma with thrombin and calcium chloride, 60 minutes, ca. 20° C.
T1 construct: Factor XIII is transformed into its active form Factor XIIIa by thrombin in the presence of calcium ions; from tissue; host or cells: human plasma, clotted in vitro with thrombin and calcium chloride
T1 sequence (P00488 39-732): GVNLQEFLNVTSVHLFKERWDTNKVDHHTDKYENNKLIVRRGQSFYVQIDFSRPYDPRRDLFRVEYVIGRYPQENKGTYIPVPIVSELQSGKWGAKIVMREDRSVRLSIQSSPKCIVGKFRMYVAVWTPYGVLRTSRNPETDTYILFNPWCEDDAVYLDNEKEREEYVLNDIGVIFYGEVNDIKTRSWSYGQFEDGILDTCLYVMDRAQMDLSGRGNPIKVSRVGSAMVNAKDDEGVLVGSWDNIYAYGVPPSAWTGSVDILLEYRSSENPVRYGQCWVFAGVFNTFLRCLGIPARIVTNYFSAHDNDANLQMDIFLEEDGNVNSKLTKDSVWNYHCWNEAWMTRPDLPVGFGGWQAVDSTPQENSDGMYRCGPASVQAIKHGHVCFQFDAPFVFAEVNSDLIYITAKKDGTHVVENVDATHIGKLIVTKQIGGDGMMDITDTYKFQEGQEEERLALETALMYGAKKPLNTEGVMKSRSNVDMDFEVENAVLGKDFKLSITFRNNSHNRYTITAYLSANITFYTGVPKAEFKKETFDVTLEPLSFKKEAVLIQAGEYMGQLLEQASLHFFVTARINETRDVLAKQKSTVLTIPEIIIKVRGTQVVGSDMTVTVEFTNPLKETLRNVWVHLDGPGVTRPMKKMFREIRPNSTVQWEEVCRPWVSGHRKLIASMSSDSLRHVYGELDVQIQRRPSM
Procedure: (§1) Incorporation of radiolabelled substrates into fibrin was investigated by induction of an in vitro human plasma clot in the following manner. To a siliconised 5 ml glass vial was added, (a) 800 μl of Tris(hydroxymethyl)aminomethane buffered saline pH 7.5 containing calcium chloride (50 mM Tris, 150 mM sodium chloride, 4 mM calcium chloride.), (b) 40 μl of physiological salt solution containing 100 units of thrombin per ml, (c) 400 μl of human plasma containing the radiolabelled substrate at a concentration of typically 10 kBq/ml. To aid induction of clot a roughened glass rod was added to the reaction vial. Control vials were prepared similarly but with the omission of thrombin and calcium chloride.
(§2) The proportion of total radioactivity was calculated by counting in suitable detection apparatus.
(§3) The fraction of radioactivity retained on the filter, after subtraction of the non-specific binding determined from the control, is a measure of incorporation into the filtered clots.

human plasma clots [2] = test: as above; type: biochemical; conditions: control vials without thrombin and calcium chloride, 60 minutes
Procedure: as §1, §2, §3

Factor XIIIa = molecular target: T2, Factor XIIIa (Homo sapiens, UniProt P00488); test: Factor XIIIa dependency of incorporation (dimethylcasein uptake, normal vs Factor XIII deficient plasma); type: biochemical; conditions: 1 KBq/ml, 60 minutes; uptake in normal plasma minus Factor XIII deficient plasma
T2 construct: Factor XIII is transformed into its active form Factor XIIIa by thrombin in the presence of calcium ions; from tissue; host or cells: human plasma
T2 sequence (P00488 39-732 limits assumed): T1 sequence (P00488 39-732)
Procedure: The assay was changed by replacing the mercaptoethanol with aprotinin at a final concentration of 2 μg/ml, and dimethylcasein (DMC) was used instead of casein.

[3] = Normal rat biodistribution; type: in vivo; conditions: i.v., male Wistar rats, Mean±SD n=3
Procedure: The resolution of a clot image is dependant on the combination of rate of incorporation of the radiopharmaceutical and its blood/tissues clearance rate. For this reason the biodistribution of several compounds has been determined in rats. Male Wistar (100-150 g) rats were injected i.v. with 0.1-0.2 ml of radiolabelled tracer solution (8 MBq/ml) and dissected at different times post-injection. The % ID in each of the selected tissues was measured. Some animals were kept in metabolism cages to be able to determine the % ID excreted in urine and faeces. The dissection times used for the majority of the agents was 2, 15, 30, 60, 240 min. Data are shown as % ID, Mean±SD, (n=3).

[4] = test system: clots induced in rat inferior vena cava; test: Incorporation into clots induced in a rat model (rat inferior vena cava model); type: in vivo; conditions: rat IVC model; for Clot/Blood / Clot/Heart / Clot/Liver / Clot/Lung: 60 min; for % ID/g (clot uptake) / Relative conc (cpm/g of clot by dose/g animal): compound injected 5 min post-induction, clot removed after 60 min
Procedure: The rats (Male Wistar, 250-350 g) were anaesthetised with 15% urethane. After laparotomy, the vena cava was isolated and freed of surrounding fat tissue. […] The average weight of the clots formed in this model was around 27 mg, n=32, (5-50 mg range). The so compounds were injected 5 min post-induction. After 60 min the animals were sacrificed and the clot removed, weighed and counted. Other tissues e.g. blood, lung, heart, were also dissected and counted. The uptake of tracer into the clot was determined as the relative concentration (cpm/g of clot by dose/g animal ) and clot to background tissue.

CC(=NO)C(C)(C)NCCN(CCNC(=O)C1CCC(CNC(=O)c2ccc(S(=O)(=O)NCCCCCN)cc2)CC1)CCNC(C)(C)C(C)=NO (centres unmarked) [Compound 17]
% specific uptake* (human plasma clots [1]): 14.7% | % retained in plasma clot assay (with thrombin) (human plasma clots [1]): 17% | % retained in plasma clot assay (no thrombin) (human plasma clots [2]): 2.3% | % specific DMC casein uptake (Factor XIIIa): 22.5% | % ID Blood ([3]; 2 min post-injection): 18.5 ± 1.06 % ID | % ID GI Tract ([3]; 2 min post-injection): 6.31 ± 0.6 % ID | % ID Heart ([3]; 2 min post-injection): 0.34 + 0.17 % ID | % ID Kidney ([3]; 2 min post-injection): 12.3 ± 0.53 % ID | % ID Liver ([3]; 2 min post-injection): 4.3 ± 0.06 % ID | % ID Lung ([3]; 2 min post-injection): 1.69 ± 0.1 % ID | % ID Muscle ([3]; 2 min post-injection): 25.9 ± 1.8 % ID | % ID Spleen ([3]; 2 min post-injection): 0.33 ± 0.07 % ID | % ID Urine ([3]; 2 min post-injection): 1.38 ± 1.34 % ID | % ID Blood ([3]; 15 min post-injection): 9.46 ± 0.24 % ID | % ID GI Tract ([3]; 15 min post-injection): 9.6 ± 0.9 % ID | % ID Heart ([3]; 15 min post-injection): 0.27 + 0.06 % ID | % ID Kidney ([3]; 15 min post-injection): 7.32 ± 0.76 % ID | % ID Liver ([3]; 15 min post-injection): 4.25 ± 0.85 % ID | % ID Lung ([3]; 15 min post-injection): 0.9 ± 0.16 % ID | % ID Muscle ([3]; 15 min post-injection): 15.6 ± 1.05 % ID | % ID Spleen ([3]; 15 min post-injection): 0.17 ± 0.04 % ID | % ID Urine ([3]; 15 min post-injection): 30.1 ± 1.28 % ID | % ID Blood ([3]; 30 min post-injection): 5.7 ± 0.42 % ID | % ID GI Tract ([3]; 30 min post-injection): 13.07 ± 1.4 % ID | % ID Heart ([3]; 30 min post-injection): 0.17 + 0.04 % ID | % ID Kidney ([3]; 30 min post-injection): 7.1 ± 1.89 % ID | % ID Liver ([3]; 30 min post-injection): 2.94 ± 0.22 % ID | % ID Lung ([3]; 30 min post-injection): 0.54 ± 0.07 % ID | % ID Muscle ([3]; 30 min post-injection): 8.51 ± 0.93 % ID | % ID Spleen ([3]; 30 min post-injection): 0.11 ± 0.03 % ID | % ID Urine ([3]; 30 min post-injection): 46.9 ± 3.71 % ID | % ID Blood ([3]; 60 min post-injection): 2.23 ± 0.15 % ID | % ID GI Tract ([3]; 60 min post-injection): 17.7 ± 3.8 % ID | % ID Heart ([3]; 60 min post-injection): 0.07 + 0.02 % ID | % ID Kidney ([3]; 60 min post-injection): 3.77 ± 0.73 % ID | % ID Liver ([3]; 60 min post-injection): 1.79 ± 0.45 % ID | % ID Lung ([3]; 60 min post-injection): 0.28 ± 0.02 % ID | % ID Muscle ([3]; 60 min post-injection): 4.31 ± 0.95 % ID | % ID Spleen ([3]; 60 min post-injection): 0.07 ± 0.02 % ID | % ID Urine ([3]; 60 min post-injection): 65.8 ± 3.4 % ID | % ID Blood ([3]; 240 min post-injection): 0.09 ± 0.02 % ID | % ID GI Tract ([3]; 240 min post-injection): 25.4 ± 5.2 % ID | % ID Heart ([3]; 240 min post-injection): 0.01 % ID | % ID Kidney ([3]; 240 min post-injection): 5.1 ± 0.99 % ID | % ID Liver ([3]; 240 min post-injection): 1 + 0.17 % ID | % ID Lung ([3]; 240 min post-injection): 0.1 ± 0.01 % ID | % ID Muscle ([3]; 240 min post-injection): 0.81 ± 0.26 % ID | % ID Spleen ([3]; 240 min post-injection): 0.03 ± 0.02 % ID | % ID Urine ([3]; 240 min post-injection): 66.08 ± 4.98 % ID | Clot/Blood [4]: 1.15 | Clot/Heart [4]: 2.7 | Clot/Liver [4]: 1.26 | Clot/Lung [4]: 1.54 | % ID/g (clot uptake) [4]: 0.32 ± 0.04 % ID/g | Relative conc (cpm/g of clot by dose/g animal) [4]: 1.1 ± 0.17

CC(=NO)C(C)(C)NCC(C)(CNC(=O)C1CCC(CNC(=O)c2ccc(S(=O)(=O)NCCCCCN)cc2)CC1)CNC(C)(C)C(C)=NO (centres unmarked) [Compound 8, 3,3,6,9,9-pentamethyl-6-N[4-N-{(4-N-(5-aminopentyl)amidosulphonyl)benzoyl}aminomethylcyclohexylcarbonyl]aminomethyl-4,8-diazaundecane-2,10-dione dioxime]
% specific uptake* (human plasma clots [1]): 18.4% | % retained in plasma clot assay (with thrombin) (human plasma clots [1]): 23% | % retained in plasma clot assay (no thrombin) (human plasma clots [2]): 4.6% | % specific DMC casein uptake (Factor XIIIa): 45% | % ID Blood ([3]; 2 min post-injection): 22.59 ± 1.44 % ID | % ID GI Tract ([3]; 2 min post-injection): 9.75 ± 1.2 % ID | % ID Heart ([3]; 2 min post-injection): 0.63 ± 0.17 % ID | % ID Kidney ([3]; 2 min post-injection): 4.56 ± 0.29 % ID | % ID Liver ([3]; 2 min post-injection): 19.6 ± 2.16 % ID | % ID Lung ([3]; 2 min post-injection): 1.61 ± 0.06 % ID | % ID Muscle ([3]; 2 min post-injection): 21.6 ± 2.08 % ID | % ID Urine ([3]; 2 min post-injection): 0.13 ± 0.06 % ID | % ID Blood ([3]; 15 min post-injection): 1.22 ± 0.06 % ID | % ID GI Tract ([3]; 15 min post-injection): 70.9 ± 1.3 % ID | % ID Heart ([3]; 15 min post-injection): 0.06 ± 0.04 % ID | % ID Kidney ([3]; 15 min post-injection): 1.9 ± 0.95 % ID | % ID Liver ([3]; 15 min post-injection): 10.0 ± 0.86 % ID | % ID Lung ([3]; 15 min post-injection): 0.21 ± 0.03 % ID | % ID Muscle ([3]; 15 min post-injection): 3.97 ± 0.56 % ID | % ID Urine ([3]; 15 min post-injection): 6.23 ± 1.23 % ID | % ID Blood ([3]; 30 min post-injection): 0.55 ± 0.19 % ID | % ID GI Tract ([3]; 30 min post-injection): 80.7 ± 2.4 % ID | % ID Kidney ([3]; 30 min post-injection): 1.8 ± 0.42 % ID | % ID Liver ([3]; 30 min post-injection): 4.53 ± 0.5 % ID | % ID Lung ([3]; 30 min post-injection): 0.1 ± 0.04 % ID | % ID Muscle ([3]; 30 min post-injection): 1.6 ± 0.82 % ID | % ID Urine ([3]; 30 min post-injection): 7.18 ± 1.24 % ID | % ID Blood ([3]; 60 min post-injection): 0.39 ± 0.05 % ID | % ID GI Tract ([3]; 60 min post-injection): 85.4 ± 0.12 % ID | % ID Heart ([3]; 60 min post-injection): 0.03 ± 0.01 % ID | % ID Kidney ([3]; 60 min post-injection): 1.06 ± 0.22 % ID | % ID Liver ([3]; 60 min post-injection): 2.63 ± 0.38 % ID | % ID Lung ([3]; 60 min post-injection): 0.08 ± 0.01 % ID | % ID Muscle ([3]; 60 min post-injection): 1.22 ± 0.28 % ID | % ID Urine ([3]; 60 min post-injection): 7.71 ± 0.49 % ID | % ID Blood ([3]; 240 min post-injection): 0.1 ± 0.02 % ID | % ID GI Tract ([3]; 240 min post-injection): 87.5 ± 2.8 % ID | % ID Heart ([3]; 240 min post-injection): 0.01 ± 0.02 % ID | % ID Kidney ([3]; 240 min post-injection): 0.85 ± 0.08 % ID | % ID Liver ([3]; 240 min post-injection): 1.39 ± 0.29 % ID | % ID Lung ([3]; 240 min post-injection): 0.05 ± 0.02 % ID | % ID Muscle ([3]; 240 min post-injection): 0.22 ± 0.31 % ID | % ID Urine ([3]; 240 min post-injection): 8.55 ± 2.76 % ID | Clot/Blood [4]: 4.1 | Clot/Heart [4]: 8.1 | Clot/Liver [4]: 0.40 | Clot/Lung [4]: 4.4 | % ID/g (clot uptake) [4]: 0.17 ± 0.09 % ID/g | Relative conc (cpm/g of clot by dose/g animal) [4]: 0.59 ± 0.31
